Like-named read-outs stand apart in the source and are kept apart here.
Experiments:
[1] = Brain/cerebrospinal fluid transport test; type: in vivo, male SD rats; conditions: rat, 2 hours after oral administration (10 mg/kg); for concentration at 2 h: male, SD
Experimental: Pharmacological Test 4 (Brain/Cerebrospinal Fluid Transport Test)
A test compound was orally or intravenously administered to male SD rats (7-10 weeks old, 200-400 g), and whole blood was collected from the abdominal aorta of said rats anesthetized with ether at predetermined time, using a heparin-treated syringe. Then, the head skin was cut open, and a dental 30 G needle was inserted between the cervical vertebrae, and it was further inserted into the cavum subarachnoideale. After 50 to 100 μL cerebrospinal fluid had been collected by a 1 ml-syringe through a tube connected to said dental 30 G needle, the brain was extracted. The blood sample was centrifuged (4° C., 6,000 r.p.m., 10 minutes) to collect the plasma, to which was added 3-fold amount of ethanol containing an internal standard, and the mixture was stirred. The brain sample was homogenized after addition of 2 ml water, an aliquot of the homogenate was taken and 3-fold amount of ethanol containing an internal standard was added thereto and stirred. The cerebrospinal fluid was stirred after adding 3-fold amount of ethanol containing an internal standard. The samples thus obtained were allowed to stand at −20° C. for 20 minutes, and then centrifuged (4° C., 12,000 g, 10 minutes). The supernatant was analyzed by LC/MS/MS, and the concentration of the test compound in the plasma, brain, and cerebrospinal fluid were measured by the method using a relative calibration curve.

[2] = molecular target: T1, human NPY Y5 receptor (Homo sapiens, UniProt Q15761); test: NPY binding inhibition test ([125I]peptide YY binding to membranes of NPY Y5 receptor expressing cells); conditions: 25° C., 2 hours, membrane of NPY Y5 receptor expressing cells, read-out: IC50 against specific peptide YY binding
T1 construct: expressed in transfected cells; host or cells: COS-7, CHO and LM(tk-)
T1 sequence (Q15761 1-445): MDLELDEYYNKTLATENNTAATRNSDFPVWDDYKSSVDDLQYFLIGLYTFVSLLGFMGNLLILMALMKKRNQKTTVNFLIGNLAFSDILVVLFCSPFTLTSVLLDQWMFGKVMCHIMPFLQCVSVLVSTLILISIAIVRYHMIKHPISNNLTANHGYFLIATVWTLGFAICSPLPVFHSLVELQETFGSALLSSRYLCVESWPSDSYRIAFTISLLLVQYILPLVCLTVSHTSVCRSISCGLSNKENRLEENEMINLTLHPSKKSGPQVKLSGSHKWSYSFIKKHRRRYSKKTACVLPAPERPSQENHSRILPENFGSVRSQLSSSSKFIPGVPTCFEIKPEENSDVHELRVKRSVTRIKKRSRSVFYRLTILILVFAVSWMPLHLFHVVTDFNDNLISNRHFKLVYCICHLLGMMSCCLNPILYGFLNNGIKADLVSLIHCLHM
Text: Pharmacological Test 1 (NPY Binding Inhibition Test)
cDNA sequence encoding human NPY Y5 receptor (c.f. International patent publication number WO96/16542) was cloned into expression vectors pcDNA3, pRc/RSV (made by Invitrogen Inc.) and pCI-neo (made by Promega Inc.). The expression vectors thus obtained were transfected to host cells COS-7, CHO and LM(tk-) (American Type Culture Collection) by cationic lipid method (Proceedings of the National Academy of Sciences of the United States of America, 84: 7413(1987)) to give NPY Y5 receptor expression cells.
A membrane sample prepared from the cells which expressed NPY Y5 receptor was incubated together with a test compound and [^125I]peptide YY (made by NEN) (20,000 cpm) in an assay buffer (25 mM Tris buffer, pH 7.4, containing 10 mM magnesium chloride, 1 mM phenylmethylsulfonyl fluoride, 0.1% bacitracin and 0.5% bovine serum albumin) at 25° C. for 2 hours, then filtered through a glass filter GF/C and washed with 5 mM Tris buffer (pH 7.4) containing 0.3% BSA. The radioactivity of the cake on the glass filter was measured. Non-specific binding was measured in the presence of 1 μM peptide YY, and a 50% Inhibitory Concentration (IC50) of the test compound against specific peptide YY binding was determined (Endocrinology, 131: 2090(1992)).

[3] = Pharmacokinetics test (plasma concentration after oral or intravenous administration); type: in vivo; conditions: rat, male SD rats
Experimental: Pharmacological Test 3 (Pharmacokinetics Test)
A test compound was orally or intravenously administered to male SD rats (7-10 weeks old, 200-400 g) which abstained from food overnight. About 100 μL of blood was collected from the tail vein at predetermined time, using a heparinized capillary. The blood was centrifuged (4° C., 6,000 r.p.m., 10 minutes) to collect the plasma, to which was added 3-fold amount of ethanol containing an internal standard. The mixture was stirred, allowed to stand at −20° C. for 20 minutes, and then centrifuged (4° C., 10,000 r.p.m., 10 minutes). The supernatant was analyzed by LC/MS/MS, and the concentration of the test compound in the plasma was measured using a relative calibration curve.

Compound: O=C1OC2(CCC(c3nc4cnc(-c5ccccc5)nc4[nH]3)CC2)c2ccccc21 (stereo not drawn) [Example 6, trans-8-[3′-oxospiro[cyclohexane-1,1′(3′H)-isobenzofuran]-4-yl]-2-phenylpurine]
- concentration at 2 h ([1]; cerebrospinal fluid, read-out: concentration in the cerebrospinal fluid): 33 nM
- concentration at 2 h ([1]; plasma, read-out: concentration in the plasma): 2770 nM
- concentration in the brain [1]: 1.10 nmol/g
- IC50 [2]: 2.2 nM
- bioavailability ([3]; oral or intravenous administration): 78%
- half-life ([3]; read-out: half-life in the blood (converted)): 3 h

Compound: O=C1OC2(CCC(c3nc4cnc(-c5ccccc5F)nc4[nH]3)CC2)c2ccccc21 (stereo not drawn) [Example 8, Trans-2-(2-fluorophenyl)-8-[3′-oxospiro[cyclohexane-1,1′(3′H)-isobenzofuran]-4-yl]purine]
- IC50 [2]: 1.8 nM

Compound: O=C1OC2(CCC(c3nc4cnc(-c5ccc(F)cc5)nc4[nH]3)CC2)c2cnccc21 (stereo not drawn) [Example 13, Trans-2-(4-fluorophenyl)-8-[3-oxospiro[6-azaisobenzofuran-1(3H),1′-cyclohexan]-4′-yl]purine]
- IC50 [2]: 2.9 nM

Compound: O=C1OC2(CCC(c3nc4cnc(-c5cc(F)ccc5F)nc4[nH]3)CC2)c2cnccc21 (stereo not drawn) [Example 17, Trans-2-(2,5-difluorophenyl)-8-[3-oxospiro[6-azaisobenzofuran-1(3H),1′-cyclohexan]-4′yl]purine]
- IC50 [2]: 2.7 nM

Compound: O=C1OC2(CCC(c3nc4cnc(-c5ccccc5F)nc4[nH]3)CC2)c2cnc(F)cc21 (stereo not drawn) [Example 20, Trans-8-[5-fluoro-3-oxospiro[6-azaisobenzofuran-1(3H),1′-cyclohexan]-4′-yl]-2-(2-fluorophenyl)purine]
- IC50 [2]: 2.3 nM

Compound: O=C1OC2(CCC(c3nc4ccc(-c5ccccc5F)nc4[nH]3)CC2)c2cnccc21 (stereo not drawn) [Example 27, Trans-5-(2-fluorophenyl)-2-[3-oxospiro[6-azaisobenzofuran-1(3H),1′-cyclohexan]-4′-yl]imidazo[4,5-b]pyridine]
- IC50 [2]: 0.72 nM

From patent publication US7687514B2, “Benzimidazole derivatives” (Banyu Pharmaceuticals Co., Ltd., priority 2002, dated 2010)
